The values below come from patent US20120088841A1, “COMPOSITION AND A METHOD OF TREATING CNS DISORDERS AND HYPERPIGMENTATION” (priority 2010, published 2012).

In brackets after ≈: the same amount, converted by molar mass. Several values for one entry are separate records, joined by “and”; a condition that tells them apart may be missing. Identical values can stand only once. Like-named read-outs stand apart in the source and are kept apart here. Marks after values point to notes of the source that are not given here.

Data set [1] addresses Mushroom Tyrosinase enzyme. The data set can be described thus: Tyrosinase inhibition. It counts as biochemical. To be noted: 40 units Mushroom Tyrosinase, 0.7 mM L-Tyrosine disodium, 37° C. The text has this:
Pigmentation is a multistep process critically dependent on the functional integrity of tyrosinase, the rate-limiting enzyme in melanin synthesis. Biosynthesis of melanin is initiated by the catalytic oxidation of tyrosine to 3, 4 dihydroxy phenylalanine (dopa) by tyrosinase. Subsequent reactions happen spontaneously eventually resulting in the synthesis of melanin. Under in vitro conditions, tyrosinase enzyme acts on L-Tyrosine forming a pink colored complex. This pink color intensity formed during the reaction is quenched in the presence of the inhibitor. The assay is performed in a 96 well clear microtitre plate. The compound hydroxychavicol, crude betel leaf extract and the reference standard in suitable vehicle (PBS or 0.2% DMSO) is pre incubated with 40 units of Mushroom Tyrosinase enzyme at 37° C. for 10 minutes. The reaction is initiated by adding 0.7 mM L-Tyrosine disodium and the absorbance is read after 10 minutes of incubation at 37° C. in FluostarOptima microplate reader at 492 nm. The dose dependent inhibitory activity of samples is calculated and the results are expressed as IC50 values using Graphpad prism software.

Data set [2] has as its system B16F1 mouse melanoma cells. Kind of data set: Inhibition of α-MSH induced melanogenesis in B16F1 mouse melanoma cell line. It is filed as cell-based. To be noted: B16-F1, 216 h, 0.6 nM MSH, 9 days treatment, read-out: Inhibition of MSH induced Melanin IC50. The procedure:
Melanin synthesis can be directly studied in live animal cells. B16F1 mouse melanoma cells were seeded in a 6 well microtiter plate at a seeding density of 5000 cells per well in 2 ml DMEM medium per well. After 24 hours of incubation in a CO2 incubator, melanin production is induced by 0.6 nM […] by replacing the medium with medium containing […]. The cells were then treated with the compound hydroxychavicol, crude betel leaf extract and the reference standard over a period of 9 days with renewal of […] containing medium and sample at regular intervals of 3 days. Control wells were maintained without sample treatment and only with the vehicle used for sample preparation. After the incubation period, the medium was removed and the cells were scraped and washed in PBS. Thereafter, melanin was extracted by 1N NaOH in boiling water bath for 5 minutes. The absorbance of the melanin extract was read at 405 nm in a microplate reader. The inhibitory effect of the samples is calculated based on the decrease of melanin formation. The dose dependent inhibitory activity of samples is calculated and the results are expressed as IC50 values using Graphpad prism software.

Another data set has as its system TNF alpha. Kind of data set: TNF alpha inhibition invitro (comparative data). To be noted: read-out: TNF alpha inhibition (IC50 μg/ml). It is filed as cell-based. The text has this: (§1) The results are as tabulated below in table 2.
The nature of data set [3]: ORAC value (comparative data). To be noted: invitro; higher is better.
From the text: as §1

In another data set the test system is CD19+ cell population. The data set can be described thus: Flow cytometric evaluation of cell-surface marker CD19+ in peripheral blood lymphocytes. It counts as in vivo, rats. The procedure: (§2) The injection was repeated on day 3.
(§3) CD3 monoclonal antibody that reacts with the CD3 differentiation antigen expressed on MHC class I T cytotoxic cells as well as MHC class II T helper cells, was used for the determination of activated T cell populations in the blood and CD19 monoclonal antibody that reacts with CD19 antigen expressed on B cells was used for the estimation of B cell population. Tubes were incubated in dark for 30 min at room temperature. Subsequently, 2 ml of 1×FACS lyses solution was added at room temperature with gentle mixing and these samples were then spinned at (300-400×g). The supernatant was aspirated and samples were given 3 washings of phosphate buffer saline (pH 7.4). The resulting stained cell pellet was resuspended in 500 μl of phosphate buffer saline and was run on a flow cytometer. Acquisition and the analysis were done directly on flow cytometer using Cell Quest Pro software (BD Biosciences) (Bani et al., 2005, 2006).
On the technique in general: Flow cytometry measures light scatter and fluorescence of single cells or particles in a stream.

The subject of the next data set is Malondialdehyde (MDA). The data set can be described thus: Measurement of lipid peroxidation (MDA) in brain of ICV STZ rats. To be noted: for MDA (LP): brain homogenate, ICV STZ rats (STZ Control 415.21 ± 10.07).
The test system of the next data set is IFN-γ. The data set can be described thus: Estimation of intracellular cytokine IFN-γ in CD3+ T cells. It is filed as in vivo, rats. The procedure:
as §2
Magnetic-bead Assisted Cell Sorting (MACS) separated the CD3+ T cells that were then permeabilised with 500 μl of FACS permeabilising solution (Becton Dickinson) for 10 min at room temperature. With this technique, specific cells that have antibody-coated micro beads are separated under a strong magnetic field magnetically from the whole cell suspension according to their cell-surface antigen. After centrifugation, cells were incubated with anti-rat IFN-γ-PE for 30 min in the dark at room temperature. After washing in PBS, cells were fixed in […] of 1% formaldehyde PBS. A total of 10,000-gated events were acquired in on a FACS BD LSR II flow cytometer (Bani et al., 2005, 2006) and analysis was done on flow cytometer using Cell Quest Pro software (BD Biosciences).

The subject of another data set is CD3+ cell population. The data set can be described thus: Flow cytometric evaluation of cell-surface marker CD3+ in peripheral blood lymphocytes. It is filed as in vivo, rats. The procedure:
as §2, §3

The test system of data set [4] is Reduced glutathione (GSH). Kind of data set: Estimation of reduced glutathione in brain of ICV STZ rats. It counts as in vivo. To be noted: for GSH: brain homogenate, ICV STZ rats (STZ Control 223.21 ± 6.08). The procedure:
as §2
Reduced glutathione (GSH) in the brain was estimated according to the method described by Ellman (1959). 1 ml supernatant was precipitated with 1 ml of 4% sulfosalicylic acid and cold digested at 4° C. for 1 h. The samples were centrifuged at 1200×g for 15 min at 4° C. To 1 ml of this supernatant, 2.7 ml of phosphate buffer (0.1 M, pH 8) and 0.2 ml of 5,5′-dithiobis-(2-nitrobenzoic acid) (DTNB) were added. The yellow colour developed was read immediately at 412 nm using spectrophotometer. The results were calculated using the molar extinction coefficient of chromophore (1.36×104 M−1 cm−1) and expressed as a percentage of the control.

Another data set concerns ICV STZ treated rats. The data set can be described thus: Single trial passive avoidance test after ICV injection of STZ. It counts as in vivo. To be noted: for initial latency: day 19, ICV STZ rats; for mean retention latency: day 20, ICV STZ rats (STZ Control 173±28 s). The procedure: as §2
Memory retention deficit was evaluated by a step through passive avoidance apparatus according to the method previously described by Mojard et al. (2007) on days 19th and 20th after 1st injection of STZ. On the acquisition trial, each rat was placed in the lighted chamber and after 60 s of habituation period, the guillotine door separating the lighted and dark chamber was opened, and the initial latency (IL) to enter the dark chamber was recorded. Immediately after the rat entered the dark chamber, the guillotine door was closed and an electric foot shock (75 V, 0.2 mA, 50 Hz) was delivered to the floor grids for 3 s. Five seconds later, the rat was removed from the dark chamber and returned to its home cage. Twenty-four hours later, the retention latency (RL) time was measured in the same way as in the acquisition trial, but foot shock was not delivered, and the latency time was recorded to a maximum of 600 s.

The test system of the next data set is Balb/C mice. To be noted: mouse, in vivo, po, 1000 mg/kg.

Method for Balb/C mice: Three female Balb/C mice, fasted 3-4 h prior to the test, were used for each step and observed individually after dosing at least once during the first 30 min, and periodically during the first 24 h, with special attention given during the first 4 h, and daily thereafter, for a total of 14 days.

As to `O=C1O[C@H]([C@@H](O)CO)C(O)=C1O` [Ascorbic acid, reference compound], the “Tyrosinase inhibition IC50” value in data set [1] is on record as “IC50—9.33 μg/ml”. In addition, the IC50 in [2] is 25 µg/mL (≈ 142 µM).

As for `C=CCc1ccc(O)c(OC)c1` [Eugenol], the IC50 in the data set with TNF alpha (invitro) was 114 µg/mL (≈ 694 µM). For the same compound, the “ORAC value (μmol trolox equivalents/g)” value in data set [3] is reported as 13921 μmol trolox equivalents/g.

On to `C=CCc1ccc(O)c(O)c1` [HC, Hydroxychavicol], for which the IC50 with TNF alpha stood at 88.7 µg/mL (≈ 590 µM); in [2], 1.3 µg/mL (≈ 8.66 µM). Moreover, the “mean percentage of CD19+ cells in the lymphocyte population” value was found to be 21.43±1.39% in the data set on CD19+ cell population (HC 0.5 mg/kg p.o. (STZ Control 27.08±2.77%)), 17.08±2.09% in the data set with CD19+ cell population (HC 1 mg/kg p.o. (STZ Control 27.08±2.77%)), 16.97±1.88% with CD19+ cell population (HC 2 mg/kg p.o. (STZ Control 27.08±2.77%)) and 16.01±1.07% with CD19+ cell population (HC 4 mg/kg p.o. (STZ Control 27.08±2.77%)). Moreover, the “MDA (LP) percentage activity against STZ Control group (suppression)” value with Malondialdehyde (MDA) (HC 0.5 mg/kg p.o.) is given as “(27.47↓)* %”; in the data set with Malondialdehyde (MDA) (HC 1.0 mg/kg p.o.), “(39.26↓)* %”; in the data set on Malondialdehyde (MDA) (HC 2.0 mg/kg p.o.), “(42.87↓)* %”; in the data set with Malondialdehyde (MDA) (HC 4.0 mg/kg p.o.), “(46.85↓)* %”. In addition, the “MDA (LP)” value in the data set on Malondialdehyde (MDA) (HC 0.5 mg/kg p.o.) is 301.15 ± 6.34 nmol/mg; in the data set on Malondialdehyde (MDA) (HC 1.0 mg/kg p.o.), 252.18 ± 4.08 nmol/mg; in the data set with Malondialdehyde (MDA) (HC 2.0 mg/kg p.o.), 237.19 ± 3.44 nmol/mg; with Malondialdehyde (MDA) (HC 4.0 mg/kg p.o.), 220.68 ± 4.32 nmol/mg. In addition, the “expression of IFN-γ in CD3+ T cells” value in the data set with IFN-γ (HC 2 mg/kg p.o. (STZ Control 18.18±0.97%)) is reported as 12.08±0.21%; in the data set on IFN-γ (HC 4 mg/kg p.o. (STZ Control 18.18±0.97%)), 11.91±0.87%. Further, the “mean percentage of CD3+ cells in the lymphocyte population” value in the data set on CD3+ cell population (HC 0.5 mg/kg p.o. (STZ Control 62.21±4.65%)) was determined as 51.19±1.78%; in the data set on CD3+ cell population (HC 2 mg/kg p.o. (STZ Control 62.21±4.65%)), 45.28±3.43%; with CD3+ cell population (HC 4 mg/kg p.o. (STZ Control 62.21±4.65%)), 44.49±4.55%. Further, the “GSH percentage activity against STZ Control group (stimulation)” value in data set [4] (HC 0.5 mg/kg p.o.) is “(61.03↑)* %”; in data set [4] (HC 1.0 mg/kg p.o.), “(62.52↑)* %”; in [4] (HC 2.0 mg/kg p.o.) it was “(66.52↑)* %”; in data set [4] (HC 4.0 mg/kg p.o.) it was “(67.04↑)* %”. Also, the GSH in data set [4] (HC 0.5 mg/kg p.o.) is 359.44 ± 5.47 µg/g; in data set [4] (HC 1.0 mg/kg p.o.) it was 362.78 ± 6.24 µg/g; in data set [4] (HC 2.0 mg/kg p.o.) it was 371.69 ± 6.17 µg/g and 371.69 ± 6.117 µg/g; in [4] (HC 4.0 mg/kg p.o.), 372.87 ± 3.18 µg/g. Besides, the initial latency came out at 12.21 ± 1.42 s in the data set with ICV STZ treated rats (HC 0.5 mg/kg p.o.), 17.33 ± 2.6 s with ICV STZ treated rats (HC 1 mg/kg p.o.), 15.92 ± 1.09 s in the data set with ICV STZ treated rats (HC 2 mg/kg p.o.) and 18.21 ± 2.96 s in the data set with ICV STZ treated rats (HC 4 mg/kg p.o.). Further, the mean retention latency in the data set on ICV STZ treated rats (HC 1 mg/kg p.o.) was found to be 291.87 ± 25.66 s; with ICV STZ treated rats (HC 2 mg/kg p.o.), 301.09 ± 13.67 s. Moreover, the “untoward symptom or mortality, general behaviour” value in the data set with Balb/C mice is on record as “No untoward symptom or any mortality”.

Turning to `CC=Cc1ccc(O)c(OC)c1` [Isoeugenol], the IC50 with TNF alpha (invitro) came out at 515 µg/mL (≈ 3140 µM). The “ORAC value (μmol trolox equivalents/g)” value in data set [3] is reported as 15248 μmol trolox equivalents/g.
